Patent US20240263138A1, “METHODS FOR PREPARING A FOOD INGREDIENT AND COMPOSITIONS PRODUCED THEREBY” (SuperMeat the Essence of Meat Ltd., priority 2021, published 2024)

Test system: SM ES cells
Assay: Direct differentiation of SM ES cells cultured with oleic acid
Type: cell-based, chicken
Conditions: culturing in the presence of 300 uM, direct differentiation protocol
Procedure: As used herein “direct differentiation protocol” refers to the addition of FAs at high concentrations to a stem cell culture e.g., pluripotent stem cells, (above 25 uM or above 100 uM, when serum is absent or present in the culture) stem cells in order to allow the cells to accumulate fat. […] Next step was to test the ability to control the fatty acid profile of SM ES cells by growing the cells in the presence of certain or several fatty acids (FAs), dependent on the selected edible species.

CCCCCCCC/C=C\CCCCCCCC(=O)O [oleic acid]
proportion of oleic acid (OA) within cells: double
